This is an account of results in ChEMBL document CHEMBL4699456 (Bioorg Med Chem Lett, 2020).

The structures appear in SMILES notation.

What all share (format): ADME, organism-based
The nature of series [1]: Volume of distribution at steady state in BALB/c mouse at 2 mg/kg, iv. The following applies: in vivo, read-out: Vdss.
A short description of series [2]: AUC in BALB/c mouse at 10 mg/kg, po. Also on record: dose 10 mg/kg. The note with it: in vivo.
Series [3] can be described thus: Oral bioavailability in BALB/c mouse at 10 mg/kg. The note with it: in vivo.
Series [4] can be described thus: Cmax in BALB/c mouse at 10 mg/kg, po. Also on record: route oral, dose 10 mg/kg. The note with it: in vivo.

As to `O=C(O)[C@H]1CC[C@H](C(=O)N2CC[C@](c3ccc(C(OCC4CCCCC4)(C(F)(F)F)C(F)(F)F)cc3)(S(=O)(=O)c3ccc(F)cc3)C2)CC1`, the Vd in series [1] was determined as 1.7 L/kg. For the same compound, the area under the curve (AUC) (as a rule, concentration integrated over time) in series [2] was 36.8 µM·h. In addition, in series [3], the bioavailability was 101%. The Cmax (commonly the maximum level reached in the sampled fluid or tissue) in series [4] turned out to be 4.9 µM.

As to `O=C(O)[C@H]1CC[C@H](C(=O)N2CC[C@](c3ccc(C(OCc4c(F)cccc4F)(C(F)(F)F)C(F)(F)F)cc3)(S(=O)(=O)c3ccc(F)cc3)C2)CC1`, in series [1], the Vd was 1.3 L/kg. Also, the AUC in series [2] turned out to be 11.3 µM·h. For the same compound, in series [3], the bioavailability was determined as 56%. Moreover, the Cmax in series [4] worked out at 2.1 µM.
